How the values were obtained:
giant foxtail = test: Test B pre/postemergence giant foxtail; assay type: in vivo, Setaria faberii; details: for Giant foxtail plant response rating: scale of 0 to 10 where 0 is no effect and 10 is complete control
How it was run: (§1)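 Test chemicals in a non-phytotoxic solvent mixture with surfactant were sprayed preemergence onto planted seeds and postemergence onto plants 2 to 18 cm tall (1- to 4-leaf stage). After twelve to sixteen days in a greenhouse, injury was visually rated against untreated controls from 0 (no effect) to 10 (complete control).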

purple nutsedge = test: Test B pre/postemergence purple nutsedge; assay type: in vivo, Cyperus rotundus; details: for Nutsedge plant response rating: scale of 0 to 10 where 0 is no effect and 10 is complete control
How it was run: as §1

crabgrass = test: Test B pre/postemergence crabgrass; assay type: in vivo, Digitaria sanguinalis; details: for Crabgrass plant response rating: scale of 0 to 10 where 0 is no effect and 10 is complete control
How it was run: as §1

pigweed = test: Test B pre/postemergence pigweed; assay type: in vivo, Amaranthus retroflexus; details: for Redroot pigweed plant response rating: scale of 0 to 10 where 0 is no effect and 10 is complete control
How it was run: as §1

morningglory = test: Test B pre/postemergence morningglory; assay type: in vivo, Ipomoea hederacea; details: for Morningglory plant response rating: scale of 0 to 10 where 0 is no effect and 10 is complete control
How it was run: as §1

surinam grass = test: Test B pre/postemergence surinam grass; assay type: in vivo, Brachiaria decumbens; details: for B. signalgrass plant response rating: scale of 0 to 10 where 0 is no effect and 10 is complete control
How it was run: as §1

duck salad = test: Test B flood test duck salad; assay type: in vivo, Heteranthera limosa
How it was run: (§2)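 Read-out is a visual response score from 0 (no effect) to 10 (complete control), assigned by comparison with untreated controls. Treatment was applied at the 2-leaf stage, and plants stayed in the greenhouse for twelve to sixteen days before scoring.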

rice = test: Test B flood test rice; assay type: in vivo, Oryza sativa
How it was run: as §2

bedstraw = test: Test B pre/postemergence bedstraw; assay type: in vivo, Galium aparine; details: Preemergence
How it was run: as §1

wild oat = test: Test B pre/postemergence wild oat; assay type: in vivo, Avena fatua; details: for Wild oats plant response rating: scale of 0 to 10 where 0 is no effect and 10 is complete control
How it was run: as §1

soybean = test: Test B pre/postemergence soybean; assay type: in vivo, Glycine max; details: for Soybean plant response rating: scale of 0 to 10 where 0 is no effect and 10 is complete control
How it was run: as §1

velvetleaf = test: Test B pre/postemergence velvetleaf; assay type: in vivo, Abutilon theophrasti; details: for Velvetleaf plant response rating: scale of 0 to 10 where 0 is no effect and 10 is complete control
How it was run: as §1

smallflower flatsedge = test: Test B flood test smallflower flatsedge; assay type: in vivo, Cyperus difformis
How it was run: as §2

corn = test: Test B pre/postemergence corn; assay type: in vivo, Zea mays; details: for Corn plant response rating: scale of 0 to 10 where 0 is no effect and 10 is complete control
How it was run: as §1

wheat = test: Test B pre/postemergence wheat; assay type: in vivo, Triticum aestivum; details: for Wheat plant response rating: scale of 0 to 10 where 0 is no effect and 10 is complete control
How it was run: as §1

blackgrass = test: Test B pre/postemergence blackgrass; assay type: in vivo, Alopecurus myosuroides; details: for Blackgrass plant response rating: scale of 0 to 10 where 0 is no effect and 10 is complete control
How it was run: as §1

[1] = Postemergence, Rate 125 g/ha, scale 0 to 10, 0 is no effect, 10 is complete control
[2] = Postemergence, Rate 250 g/ha, scale 0 to 10, 0 is no effect, 10 is complete control
[3] = Preemergence, Rate 62 g/ha, scale 0 to 10 (0 no effect, 10 complete control)
[4] = Rate 500 g/ha, Postemergence, scale 0 to 10, 0 no effect, 10 complete control
[5] = Rate 62 g/ha, flood test species, Pre-emergence, visual evaluation after twelve to sixteen days
[6] = Rate 125 g/ha, under heading Pre-emergence, flood test species, visual evaluation after twelve to sixteen days
[7] = Rate 250 g/ha, Pre-emergence, flood-test species, scale 0 to 10, 0 is no effect, 10 is complete control
[8] = Rate 500 g/ha, Pre-emergence, flood test species, scale 0 to 10 (0 no effect, 10 complete control)

Cc1nsc(Cl)c1Cn1c(=O)on(C(=O)N(c2ccccc2)C(C)C)c1=O [Compound 374]
Plant response rating, Giant foxtail (giant foxtail; [1]): 0 | Plant response rating, Giant foxtail (giant foxtail; [2]): 2 | Plant response rating, Giant foxtail (giant foxtail; [3]): 8 | Giant foxtail plant response rating (0 to 10 scale) (giant foxtail; Preemergence, Rate 125 g/ha): 9 | Giant foxtail plant response rating (giant foxtail; Preemergence, Rate 250 g/ha): 10 | Giant foxtail plant response rating (giant foxtail; Preemergence, Rate 500 g/ha): 10 | Giant foxtail plant response rating (giant foxtail; Rate 62 g/ha, Postemergence): 0 | Plant response rating, Giant foxtail (giant foxtail; [4]): 8 | Plant response rating, Nutsedge (purple nutsedge; [1]): 0 | Plant response rating, Nutsedge (purple nutsedge; [2]): 0 | Plant response rating, Nutsedge (purple nutsedge; [3]): 0 | Nutsedge plant response rating (0 to 10 scale) (purple nutsedge; Preemergence, Rate 125 g/ha): 0 | Nutsedge plant response rating (purple nutsedge; Preemergence, Rate 250 g/ha): 0 | Nutsedge plant response rating (purple nutsedge; Preemergence, Rate 500 g/ha): 0 | Nutsedge plant response rating (purple nutsedge; Rate 62 g/ha, Postemergence): 0 | Plant response rating, Nutsedge (purple nutsedge; [4]): 0 | Plant response rating, Crabgrass (crabgrass; [1]): 0 | Plant response rating, Crabgrass (crabgrass; [2]): 0 | Plant response rating, Crabgrass (crabgrass; [3]): 6 | Crabgrass plant response rating (0 to 10 scale) (crabgrass; Preemergence, Rate 125 g/ha): 6 | Crabgrass plant response rating (crabgrass; Preemergence, Rate 250 g/ha): 9 | Crabgrass plant response rating (crabgrass; Preemergence, Rate 500 g/ha): 9 | Crabgrass plant response rating (crabgrass; Rate 62 g/ha, Postemergence): 0 | Plant response rating, Crabgrass (crabgrass; [4]): 3 | Plant response rating, Redroot pigweed (pigweed; [1]): 0 | Plant response rating, Redroot pigweed (pigweed; [2]): 2 | Plant response rating, Redroot pigweed (pigweed; [3]): 0 | Redroot pigweed plant response rating (0 to 10 scale) (pigweed; Preemergence, Rate 125 g/ha): 0 | Redroot pigweed plant response rating (pigweed; Preemergence, Rate 250 g/ha): 0 | Redroot pigweed plant response rating (pigweed; Rate 62 g/ha, Postemergence): 0 | Plant response rating, Redroot pigweed (pigweed; [4]): 6 | Plant response rating, Morningglory (morningglory; [1]): 5 | Plant response rating, Morningglory (morningglory; [2]): 10 | Plant response rating, Morningglory (morningglory; [3]): 0 | Morningglory plant response rating (0 to 10 scale) (morningglory; Preemergence, Rate 125 g/ha): 0 | Morningglory plant response rating (morningglory; Preemergence, Rate 250 g/ha): 0 | Morningglory plant response rating (morningglory; Preemergence, Rate 500 g/ha): 0 | Plant response rating, Morningglory (morningglory; [4]): 10 | Plant response rating, B. signalgrass (surinam grass; [1]): 0 | Plant response rating, B. signalgrass (surinam grass; [2]): 0 | Plant response rating, B. signalgrass (surinam grass; [3]): 0 | B. signalgrass plant response rating (0 to 10 scale, 0 is no effect, 10 is complete control) (surinam grass; Preemergence, Rate 125 g/ha): 0 | B. signalgrass plant response rating (surinam grass; Preemergence, Rate 250 g/ha): 2 | B. signalgrass plant response rating (surinam grass; Preemergence, Rate 500 g/ha): 5 | B. signalgrass plant response rating (surinam grass; Rate 62 g/ha, Postemergence): 0 | Plant response rating, B. signalgrass (surinam grass; [4]): 0 | Plant response rating, Ducksalad (0 to 10 scale, 0 is no effect, 10 is complete control) (duck salad; [5]): 0 | Ducksalad plant response rating (0 to 10 scale, 0 is no effect, 10 is complete control) (duck salad; [6]): 0 | Ducksalad plant response rating (duck salad; [7]): 0 | Ducksalad plant response rating (duck salad; [8]): 0 | Plant response rating, Rice (0 to 10 scale, 0 is no effect, 10 is complete control) (rice; [5]): 0 | Rice plant response rating (0 to 10 scale, 0 is no effect, 10 is complete control) (rice; [6]): 0 | Rice plant response rating (rice; [7]): 0 | Rice plant response rating (rice; [8]): 0 | Plant response rating, Bedstraw (bedstraw; Rate 62 g/ha, scale 0 to 10 (0 no effect, 10 complete control)): 0 | Bedstraw plant response rating (0 to 10 scale) (bedstraw; Rate 125 g/ha): 0 | Bedstraw plant response rating (bedstraw; Rate 250 g/ha, scale of 0 to 10 where 0 is no effect and 10 is complete control): 0 | Plant response rating, Wild oats (wild oat; [1]): 0 | Plant response rating, Wild oats (wild oat; [2]): 0 | Plant response rating, Wild oats (wild oat; [3]): 0 | Wild oats plant response rating (0 to 10 scale) (wild oat; Preemergence, Rate 125 g/ha): 0 | Wild oats plant response rating (wild oat; Preemergence, Rate 250 g/ha): 0 | Wild oats plant response rating (wild oat; Preemergence, Rate 500 g/ha): 0 | Wild oats plant response rating (wild oat; Rate 62 g/ha, Postemergence): 0 | Plant response rating, Soybean (soybean; [1]): 2 | Plant response rating, Soybean (soybean; [2]): 2 | Plant response rating, Soybean (soybean; [3]): 0 | Soybean plant response rating (0 to 10 scale) (soybean; Preemergence, Rate 125 g/ha): 0 | Soybean plant response rating (soybean; Preemergence, Rate 250 g/ha): 0 | Soybean plant response rating (soybean; Preemergence, Rate 500 g/ha): 0 | Soybean plant response rating (soybean; Rate 62 g/ha, Postemergence): 2 | Plant response rating, Soybean (soybean; [4]): 4 | Plant response rating, Velvetleaf (velvetleaf; [1]): 0 | Plant response rating, Velvetleaf (velvetleaf; [2]): 0 | Plant response rating, Velvetleaf (velvetleaf; [3]): 0 | Velvetleaf plant response rating (0 to 10 scale) (velvetleaf; Preemergence, Rate 125 g/ha): 0 | Velvetleaf plant response rating (velvetleaf; Preemergence, Rate 250 g/ha): 0 | Velvetleaf plant response rating (velvetleaf; Preemergence, Rate 500 g/ha): 0 | Velvetleaf plant response rating (velvetleaf; Rate 62 g/ha, Postemergence): 0 | Plant response rating, Velvetleaf (velvetleaf; [4]): 1 | Plant response rating, S. Flatsedge (0 to 10 scale, 0 is no effect, 10 is complete control) (smallflower flatsedge; [5]): 0 | S. Flatsedge plant response rating (0 to 10 scale, 0 is no effect, 10 is complete control) (smallflower flatsedge; [6]): 0 | S. Flatsedge plant response rating (smallflower flatsedge; [7]): 0 | S. Flatsedge plant response rating (smallflower flatsedge; [8]): 0 | Plant response rating, Corn (corn; [1]): 0 | Plant response rating, Corn (corn; [2]): 0 | Plant response rating, Corn (corn; [3]): 0 | Corn plant response rating (0 to 10 scale) (corn; Preemergence, Rate 125 g/ha): 0 | Corn plant response rating (corn; Preemergence, Rate 250 g/ha): 0 | Corn plant response rating (corn; Preemergence, Rate 500 g/ha): 0 | Corn plant response rating (corn; Rate 62 g/ha, Postemergence): 0 | Plant response rating, Corn (corn; [4]): 0 | Plant response rating, Wheat (wheat; [1]): 0 | Plant response rating, Wheat (wheat; [2]): 0 | Plant response rating, Wheat (wheat; [3]): 0 | Wheat plant response rating (0 to 10 scale) (wheat; Preemergence, Rate 125 g/ha): 0 | Wheat plant response rating (wheat; Preemergence, Rate 250 g/ha): 0 | Wheat plant response rating (wheat; Preemergence, Rate 500 g/ha): 0 | Wheat plant response rating (wheat; Rate 62 g/ha, Postemergence): 0 | Plant response rating, Wheat (wheat; [4]): 0 | Plant response rating, Blackgrass (blackgrass; [1]): 0 | Plant response rating, Blackgrass (blackgrass; [2]): 0 | Plant response rating, Blackgrass (blackgrass; [3]): 0 | Blackgrass plant response rating (0 to 10 scale) (blackgrass; Preemergence, Rate 125 g/ha): 2 | Blackgrass plant response rating (blackgrass; Preemergence, Rate 250 g/ha): 5 | Blackgrass plant response rating (blackgrass; Preemergence, Rate 500 g/ha): 6 | Blackgrass plant response rating (blackgrass; Rate 62 g/ha, Postemergence): 0
